Patent US6440903B1, “Substituted 2,4-diamino-1,3,5-triazines as herbicides” (Bayer Aktiengesellschaft, priority 1996, dated 2002)

Columns and labels:
Assay type in all cases: in vivo
Abutilon [1] = test: Post-emergence test; details: greenhouse, 1000 g of ai./ha, scored after three weeks
How it was run: (§1)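 Compound formulated in acetone (5 parts) with alkylaryl polyglycol ether emulsifier (1 part) per part active, diluted with water. Plants 5-15 cm tall sprayed at desired rates in 1000 l water/ha. Damage scored visually after three weeks as % versus untreated control (0% no effect, 100% total destruction).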

Amaranthus [2] = test: Post-emergence test; details: greenhouse, scored after three weeks; for pest or weed control at 1000 g/ha: Amaranthus, 504 h, read-out: % damage, Amaranthus
How it was run: as §1

Avena fatua = test: Post-emergence test; details: greenhouse, 1000 g of ai./ha, scored after three weeks
How it was run: as §1

Galium [3] = test: Post-emergence test; details: greenhouse, 1000 g of ai./ha, scored after three weeks
How it was run: as §1

Setaria [4] = test: Post-emergence test; details: greenhouse, scored after three weeks
How it was run: as §1

Sinapis [5] = test: Post-emergence test; details: greenhouse, 1000 g of ai./ha, scored after three weeks
How it was run: as §1

Xanthium = test: Post-emergence test; details: greenhouse, 1000 g of ai./ha, scored after three weeks
How it was run: as §1

Chenopodium = test: Post-emergence test; details: greenhouse, scored after three weeks
How it was run: as §1

Datura [6] = test: Post-emergence test; details: greenhouse, 125 g of ai./ha, scored after three weeks
How it was run: as §1

Maize [7] = test: Post-emergence test; details: greenhouse, scored after three weeks
How it was run: as §1

Polygonum [8] = test: Post-emergence test; details: greenhouse, 125 g of ai./ha, scored after three weeks
How it was run: as §1

Viola = test: Post-emergence test; details: greenhouse, scored after three weeks
How it was run: as §1

Abutilon [9] = test: Pre-emergence test; details: greenhouse, scored after three weeks
Method: (§2) Pre-emergence Test Solvent: 5 parts by weight of acetone Emulsifier: 1 part by weight of alkylaryl polyglycol ether To produce a suitable preparation of active compound, 1 part by weight of active compound is mixed with the stated amount of solvent, the stated amount of emulsifier is added and the concentrate is diluted with water to the desired concentration. Seeds of the test plants are sown in normal soil. After about 24 hours, the soil is watered with the preparation of active compound. The amount of water per unit area is advantageously kept constant. The concentration of active compound in the preparation is immaterial, only the application rate of active compound per unit area matters. After three weeks, the degree of damage to the plants is scored visually in % damage in comparison to the development of the untreated control. The figures denote: 0%=no effect (like untreated control) 100%=total destruction

Amaranthus [10] = test: Pre-emergence test; details: greenhouse, scored after three weeks
Method: as §2

Maize [11] = test: Pre-emergence test; details: greenhouse, scored after three weeks
Method: as §2

Sinapis [12] = test: Pre-emergence test; details: greenhouse, 1000 g of ai./ha, scored after three weeks
Method: as §2

Cotton = test: Pre-emergence test; details: greenhouse, scored after three weeks
Method: as §2

Echinochloa = test: Pre-emergence test; details: greenhouse, scored after three weeks
Method: as §2

Polygonum [13] = test: Pre-emergence test; details: greenhouse, 500 g of ai./ha, scored after three weeks
Method: as §2

Setaria [14] = test: Pre-emergence test; details: greenhouse, scored after three weeks
Method: as §2

Solanum = test: Pre-emergence test; details: greenhouse, scored after three weeks
Method: as §2

Veronica = test: Pre-emergence test; details: greenhouse, scored after three weeks
Method: as §2

Wheat [15] = test: Pre-emergence test; details: greenhouse, scored after three weeks
Method: as §2

Digitaria [16] = test: Pre-emergence test; details: greenhouse, scored after three weeks
Method: as §2

Alopecurus [17] = test: Pre-emergence test; details: greenhouse, scored after three weeks
Method: as §2

Datura [18] = test: Pre-emergence test; details: greenhouse, 500 g of ai./ha, scored after three weeks
Method: as §2

Matricaria = test: Pre-emergence test; details: greenhouse, 500 g of ai./ha, scored after three weeks
Method: as §2

Stellaria = test: Post-emergence test; details: greenhouse, 250 g of ai./ha, scored after three weeks
How it was run: as §1

Wheat [19] = test: Post-emergence test; details: greenhouse, scored after three weeks
How it was run: as §1

Galium [20] = test: Pre-emergence test; details: greenhouse, 1000 g of ai./ha, scored after three weeks
Method: as §2

Alopecurus [21] = test: Post-emergence test; details: greenhouse, 1000 g of ai./ha, scored after three weeks
How it was run: as §1

Digitaria [22] = test: Post-emergence test; details: greenhouse, 125 g of ai./ha, scored after three weeks
How it was run: as §1

[23] = Setaria, 504 h, 1000 g of ai./ha, read-out: % damage, Setaria

CC(Nc1nc(N)nc(C(F)(F)F)n1)c1ccc(Cl)cc1 (centres unmarked) [drawing 111]
% damage, Abutilon (Abutilon [1]): 100% | % damage, Amaranthus (Amaranthus [2]; 1000 g of ai./ha): 100% | % damage, Avena fatua (Avena fatua): 70% | % damage, Galium (Galium [3]): 100% | % damage, Setaria (Setaria [4]; 1000 g of ai./ha): 100% | % damage, Sinapis (Sinapis [5]): 100% | % damage, Xanthium (Xanthium): 100%

CC(F)c1nc(N)nc(NC(C)c2ccc(Cl)cc2)n1 (centres unmarked) [drawing 105]
pest or weed control at 125 g/ha (Chenopodium; Chenopodium, 504 h, 125 g of ai./ha, read-out: % damage, Chenopodium): 100% | % damage, Datura (Datura [6]): 100% | % damage, Maize (Maize [7]; 125 g of ai./ha): 20% | pest or weed control at 125 g/ha (Polygonum [8]; Polygonum, 504 h, read-out: % damage, Polygonum): 100% | pest or weed control at 125 g/ha (Setaria [4]; Setaria, 504 h, 125 g of ai./ha, read-out: % damage, Setaria): 80% | pest or weed control at 125 g/ha (Viola; 504 h, 125 g of ai./ha, read-out: % damage, Viola): 100%

CC(Nc1nc(N)nc(C(C)(C)F)n1)c1ccc(Cl)cc1 (centres unmarked) [drawing 95]
% damage, Abutilon (Abutilon [9]; 1000 g of ai./ha): 80% | % damage, Amaranthus (Amaranthus [10]; 1000 g of ai./ha): 90% | % damage, Maize (Maize [11]; 1000 g of ai./ha): 0% | % damage, Sinapis (Sinapis [12]): 100%

CCC(Nc1nc(NC(C)=O)nc(C(F)(F)F)n1)c1ccc(Cl)cc1 (centres unmarked) [drawing 144]
% damage, Abutilon (Abutilon [1]): 100% | pest or weed control at 1000 g/ha (Amaranthus [2]; 1000 g of ai./ha): 100% | % damage, Maize (Maize [7]; 1000 g of ai./ha): 10% | pest or weed control at 1000 g/ha (Setaria [4]; [23]): 100% | % damage, Xanthium (Xanthium): 90%

CC(Cl)c1nc(N)nc(NC(C)c2ccc(Cl)cc2)n1 (centres unmarked) [drawing 100]
% damage, Cotton (Cotton; 500 g of ai./ha): 0% | % damage, Echinochloa (Echinochloa; 500 g of ai./ha): 100% | % damage, Polygonum (Polygonum [13]): 100% | % damage, Setaria (Setaria [14]; 500 g of ai./ha): 95% | % damage, Solanum (Solanum; 500 g of ai./ha): 100% | % damage, Veronica (Veronica; 500 g of ai./ha): 100% | % damage, Wheat (Wheat [15]; 500 g of ai./ha): 0%

CC(=O)Nc1nc(NC(C)c2ccc(Cl)cc2)nc(C(F)C(F)(F)F)n1 (centres unmarked) [drawing 97]
% damage, Amaranthus (Amaranthus [10]; 500 g of ai./ha): 100% | % damage, Cotton (Cotton; 500 g of ai./ha): 0% | % damage, Digitaria (Digitaria [16]; 500 g of ai./ha): 80% | % damage, Echinochloa (Echinochloa; 500 g of ai./ha): 95% | % damage, Polygonum (Polygonum [13]): 100% | % damage, Veronica (Veronica; 500 g of ai./ha): 100% | % damage, Wheat (Wheat [15]; 500 g of ai./ha): 0%

CC(F)c1nc(N)nc(NC(C)c2ccc(Cl)cc2)n1 (centres unmarked) [drawing 93]
% damage, Abutilon (Abutilon [9]; 500 g of ai./ha): 100% | % damage, Alopecurus (Alopecurus [17]; 500 g of ai./ha): 100% | % damage, Datura (Datura [18]): 100% | % damage, Digitaria (Digitaria [16]; 500 g of ai./ha): 100% | % damage, Echinochloa (Echinochloa; 500 g of ai./ha): 100% | % damage, Maize (Maize [11]; 500 g of ai./ha): 0% | % damage, Matricaria (Matricaria): 100%

CC(Nc1nc(N)nc(C(C)(C)F)n1)c1ccc(Cl)cc1 (centres unmarked) [drawing 112]
% damage, Abutilon (Abutilon [1]): 100% | % damage, Amaranthus (Amaranthus [2]; 1000 g of ai./ha): 100% | % damage, Avena fatua (Avena fatua): 100% | % damage, Galium (Galium [3]): 100% | % damage, Setaria (Setaria [4]; 1000 g of ai./ha): 100% | % damage, Sinapis (Sinapis [5]): 100% | % damage, Xanthium (Xanthium): 100%

CC(F)c1nc(N)nc(NC(C)c2ccc(Cl)cc2)n1 (centres unmarked) [drawing 94]
% damage, Abutilon (Abutilon [9]; 1000 g of ai./ha): 100% | % damage, Amaranthus (Amaranthus [10]; 1000 g of ai./ha): 100% | % damage, Maize (Maize [11]; 1000 g of ai./ha): 0% | % damage, Sinapis (Sinapis [12]): 100%

CCC(Nc1nc(N)nc(C(F)(F)F)n1)c1ccc(Cl)cc1 (centres unmarked) [drawing 142]
% damage, Amaranthus (Amaranthus [2]; 250 g of ai./ha): 100% | % damage, Chenopodium (Chenopodium; 250 g of ai./ha): 100% | % damage, Setaria (Setaria [4]; 250 g of ai./ha): 100% | % damage, Stellaria (Stellaria): 100% | % damage, Viola (Viola; 250 g of ai./ha): 100% | % damage, Wheat (Wheat [19]; 250 g of ai./ha): 10%

CC(Nc1nc(N)nc(C(C)(C)F)n1)c1ccc(Cl)cc1 (centres unmarked) [drawing 96]
% damage, Abutilon (Abutilon [9]; 1000 g of ai./ha): 100% | % damage, Alopecurus (Alopecurus [17]; 1000 g of ai./ha): 100% | % damage, Amaranthus (Amaranthus [10]; 1000 g of ai./ha): 100% | % damage, Galium (Galium [20]): 100% | % damage, Maize (Maize [11]; 1000 g of ai./ha): 20% | % damage, Setaria (Setaria [14]; 1000 g of ai./ha): 100% | % damage, Sinapis (Sinapis [12]): 100%

CC(Nc1nc(N)nc(C(C)(Cl)Cl)n1)c1ccc(Cl)cc1 (centres unmarked) [drawing 99]
% damage, Amaranthus (Amaranthus [10]; 1000 g of ai./ha): 100% | % damage, Cotton (Cotton; 1000 g of ai./ha): 0% | % damage, Digitaria (Digitaria [16]; 1000 g of ai./ha): 100% | % damage, Echinochloa (Echinochloa; 1000 g of ai./ha): 95% | % damage, Solanum (Solanum; 1000 g of ai./ha): 100% | % damage, Veronica (Veronica; 1000 g of ai./ha): 100% | % damage, Wheat (Wheat [15]; 1000 g of ai./ha): 0%

COc1ccc(C(C)Nc2nc(NC(C)=O)nc(C(F)(F)F)n2)cc1 (centres unmarked) [drawing 149]
% damage, Abutilon (Abutilon [1]): 100% | % damage, Alopecurus (Alopecurus [21]): 100% | pest or weed control at 1000 g/ha (Amaranthus [2]; 1000 g of ai./ha): 100% | % damage, Galium (Galium [3]): 100% | pest or weed control at 1000 g/ha (Setaria [4]; [23]): 100% | % damage, Xanthium (Xanthium): 100%

CC(Nc1nc(N)nc(C(Cl)Cl)n1)c1ccc(Cl)cc1 (centres unmarked) [drawing 98]
% damage, Cotton (Cotton; 500 g of ai./ha): 0% | % damage, Digitaria (Digitaria [16]; 500 g of ai./ha): 95% | % damage, Echinochloa (Echinochloa; 500 g of ai./ha): 100% | % damage, Polygonum (Polygonum [13]): 100% | % damage, Solanum (Solanum; 500 g of ai./ha): 100% | % damage, Veronica (Veronica; 500 g of ai./ha): 100% | % damage, Wheat (Wheat [15]; 500 g of ai./ha): 0%

CC(F)c1nc(N)nc(NC(C)c2ccc(Cl)cc2)n1 (centres unmarked) [drawing 104]
% damage, Chenopodium (Chenopodium; 125 g of ai./ha): 100% | % damage, Datura (Datura [6]): 100% | % damage, Digitaria (Digitaria [22]): 80% | % damage, Maize (Maize [7]; 125 g of ai./ha): 10% | % damage, Polygonum (Polygonum [8]): 100% | % damage, Setaria (Setaria [4]; 125 g of ai./ha): 90% | % damage, Viola (Viola; 125 g of ai./ha): 100% | plant injury at 125 g/ha (Wheat [19]; Triticum aestivum, 504 h, 125 g of ai./ha, read-out: % damage, Wheat): 0%
